From PubChem BioAssay (NCI)
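Following 48 hours of exposure in 96-well plates, responses at five concentrations were used to interpolate endpoints linearly. The concentration for 50% growth inhibition is given as GI50. The concentration for full growth arrest is given as TGI.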

What was measured:
Assay in all cases: DTP human tumour cell line panel, 48 h
[1] = tested on: MDA-MB-435
[2] = tested on: KM12 colon
[3] = tested on: U251 CNS
[4] = tested on: TK-10 renal
[5] = tested on: ACHN renal
[6] = tested on: SF-268 CNS
[7] = tested on: HCT-15 colon
[8] = tested on: MOLT-4 leukemia
[9] = tested on: A498 renal
[10] = tested on: HS 578T breast

| SMILES | TGI [1] | TGI [2] | TGI [3] | TGI [4] | TGI [5] | TGI [6] | TGI [7] | TGI [8] | TGI [9] | GI50 [1] | GI50 [2] | GI50 [10] | TGI [10] | GI50 [4] | GI50 [5] | GI50 [6] | GI50 [7] | GI50 [3] | GI50 [8] | GI50 [9] |
| --- | --- | --- | --- | --- | --- | --- | --- | --- | --- | --- | --- | --- | --- | --- | --- | --- | --- | --- | --- | --- |
| CC1(C)OCN(c2ccc(Cl)cc2)Cn2c1nc1ccccc12 | > 100 µM | > 54.1 µM | > 100 µM | > 100 µM | > 100 µM | > 100 µM | > 100 µM | > 100 µM | > 100 µM |  |  |  |  |  |  |  |  |  |  |  |
| COc1cc2c(cc1C)n(O)c(C)c(C(=O)C/C(=N/NC(=O)C[N+](C)(C)C)C(=O)Nc1cccc(Cl)c1C)[n+]2=O |  | > 100 µM | > 100 µM | > 100 µM | > 100 µM | > 100 µM | > 100 µM | > 100 µM | > 100 µM |  |  |  |  |  |  |  |  |  |  |  |
| Cc1ccc(N2C(=O)/C(=C3\Sc4c(nc(C)[nH]c4=O)N3c3ccccc3)SC2=S)cc1 |  |  | 37.9 µM | 59.2 µM | > 100 µM | > 100 µM | > 100 µM |  | 88.2 µM |  |  |  |  |  |  |  |  |  |  |  |
| COc1ccc(-c2ccc(-c3ccc(C(=N)N)cn3)s2)cc1Cl | 2.73 µM | 3.04 µM |  | 3.41 µM | 3 µM | 3.43 µM | 3.01 µM |  |  | 1.43 µM | 1.65 µM | 1.79 µM | 3.8 µM | 1.79 µM | 1.64 µM | 1.8 µM | 1.62 µM |  |  |  |
| O=[N+]([O-])c1ccccc1C1N2CCCCC2[C@@H]2c3[nH]c4ccccc4c3CCN12 (some centres not stated) |  |  | 31.3 µM | 38.4 µM | 31.3 µM | 27.4 µM | 29.4 µM | 28.1 µM | 25.2 µM |  |  |  |  |  |  |  |  |  |  |  |
| COc1ccc(O)c2c1C(=O)CCCC2=O |  | > 100 µM | > 100 µM | > 100 µM | > 100 µM | > 100 µM | > 100 µM | > 100 µM | > 100 µM |  |  |  |  |  |  |  |  |  |  |  |
| O=c1c([Se]c2coc3ccccc3c2=O)coc2ccccc12 |  | 23.4 µM | 19.8 µM | 31.6 µM | 32.1 µM | 33.8 µM | 30.8 µM | 48.2 µM | 33.6 µM |  |  |  |  |  |  |  |  |  |  |  |
| CC[C@@H]1OC2(C)CC(S(=O)(=O)c3ccccc3)CC1O2 (some centres not stated) |  | > 100 µM | > 100 µM |  | > 100 µM | > 100 µM | > 100 µM | > 100 µM |  |  |  |  |  |  |  |  |  |  |  |  |
| C[Si](C)(C)/C=C/CN1C(=O)CCC1O (configuration not stated) |  | > 100 µM | > 100 µM | > 100 µM | > 100 µM | > 100 µM | > 100 µM | > 100 µM | > 100 µM |  |  |  |  |  |  |  |  |  |  |  |
| Cc1nc(C(N)=S)sc1C(=O)/C=C/c1cccc(O)c1 |  | > 100 µM | > 100 µM | > 100 µM | > 100 µM | > 100 µM | > 100 µM | > 100 µM | > 100 µM |  |  |  |  |  |  |  |  |  |  |  |
| C[Se]C(=O)CC1=C2C=C(F)C=CC2/C(=C\c2ccc(S(C)=O)cc2)C1C (configuration not stated) | 0.362 µM | 3.25 µM | 1.43 µM |  | 3.07 µM | 0.0242 µM | 1.21 µM | > 100 µM | 0.192 µM | < 0.0117 µM | 0.0853 µM | 0.0886 µM | 2.36 µM |  | 0.154 µM | < 0.01 µM | 0.0461 µM | < 0.0181 µM | 0.392 µM | 0.0422 µM |
| COC(=O)C1=C(C(=O)OC)C2(C(=O)OC)OC1(OC)C(C1(C(=O)OC)C(C(=O)OC)=C1C(=O)OC)=C2C(=O)OC (configuration not stated) |  | > 100 µM | > 100 µM | > 100 µM | > 100 µM | > 100 µM | > 100 µM | > 100 µM |  |  |  |  |  |  |  |  |  |  |  |  |
| CCNCCNc1cc(-c2ccc(F)cc2)c(C#N)c2nc3ccccc3n12 | 3.5 µM | 21.1 µM | 5.05 µM | 8.45 µM | 3.51 µM | 12.8 µM | 5.86 µM |  | 17.2 µM | 1.78 µM | 8.37 µM | 3.15 µM | 12.5 µM | 2.33 µM | 1.87 µM | 3.09 µM | 2.31 µM | 2.41 µM |  | 4.79 µM |
| CC1OC(O)C(O)C(O)C1O (configuration not stated) | > 100 µM | > 100 µM | > 100 µM | > 100 µM | > 100 µM | > 100 µM | > 100 µM |  | > 100 µM |  |  |  | > 100 µM |  |  |  |  |  |  |  |
| CCN(CC)CCCNC(=O)Cc1ccccc1Nc1c(Cl)cccc1Cl |  | 39.3 µM | 25.7 µM | 26.8 µM | 20.8 µM | 31.2 µM | 29.1 µM | 28 µM |  |  |  |  |  |  |  |  |  |  |  |  |
| COC1=C(OC)CCC(/C(C#N)=C/c2ccc(OC)c(OC)c2)=C1 |  | > 100 µM | > 100 µM | 98 µM | > 100 µM | > 100 µM | > 100 µM | > 100 µM | > 100 µM |  |  |  |  |  |  |  |  |  |  |  |
| CCc1cccc(C)c1NC(=O)NS(=O)(=O)c1ccc(C)cc1 |  | > 100 µM | > 100 µM | > 100 µM | > 100 µM | > 100 µM | > 100 µM | > 100 µM | > 100 µM |  |  |  |  |  |  |  |  |  |  |  |
| O=[N+]([O-])c1ccc(Cl)c(C2SCc3nc4ccccc4n32)c1 (configuration not stated) |  | > 100 µM | > 100 µM | > 100 µM | > 100 µM | > 100 µM |  | > 100 µM | > 100 µM |  |  |  |  |  |  |  |  |  |  |  |
| CC(C)C(N)(C(=O)O)c1ccccc1 (configuration not stated) | > 100 µM | > 100 µM | > 100 µM | > 100 µM | > 100 µM | > 100 µM | > 100 µM |  | > 100 µM |  |  |  | > 100 µM |  |  |  |  |  |  |  |
| COc1cccc(C2C(C(=O)Nc3cc(=O)n(C)c(=O)n3C)=C(C)NC(C)=C2C(=O)Nc2cc(=O)n(C)c(=O)n2C)c1O |  | > 100 µM | > 100 µM | > 100 µM | > 100 µM | > 100 µM |  | > 100 µM | > 100 µM |  |  |  |  |  |  |  |  |  |  |  |
| O=C1C(c2ccccc2)=C(c2ccccc2)C(c2ccc(CCCCCCc3ccc(C4=C(c5ccccc5)C(=O)C(c5ccccc5)=C4c4ccccc4)cc3)cc2)=C1c1ccccc1 |  | > 100 µM | > 100 µM | > 100 µM | > 100 µM | > 100 µM | > 100 µM | > 100 µM |  |  |  |  |  |  |  |  |  |  |  |  |
| COc1ccc(NC(=O)c2cc(OC)c(OC)c(OC)c2)cc1O | 0.872 µM | > 100 µM | > 100 µM | > 100 µM | > 100 µM | > 100 µM | > 100 µM | > 100 µM | 32.9 µM | 0.241 µM | 0.792 µM |  |  | > 100 µM | 13.6 µM | 5.43 µM | 1.46 µM | 3.71 µM | 3.42 µM | 2.73 µM |
| CCOC(=O)C12CC1(C(=O)OCC)C1CCC2C1 (configuration not stated) |  |  | > 100 µM | > 100 µM | > 100 µM | > 100 µM | > 100 µM | > 100 µM | > 100 µM |  |  |  |  |  |  |  |  |  |  |  |
